Results: patent US20260108527A1, “POLO LIKE KINASE 4 INHIBITORS” (ORIC Pharmaceuticals, Inc., priority 2022, published 2026)

Experiments:
CHP134 = CHP134 CellTiter-Glo (CTG) Assay; type: cell-based; details: Homo sapiens, CHP-134, 120 h; viable cells by CellTiter-Glo after 5 days
Experimental: […] cells (DSMZ-German Collection of Microorganisms and Cell Cultures, Braunschweig Germany) were cultured in RPMI 1640 supplemented with 10% fetal bovine serum, penicillin (100 U/ml), 1% L-Glutamine and streptomycin ([…]). Cells were seeded (200 cells/well) in 384-well plates for 16 hours. On day two, nine serial 1:3 compound dilutions were made in DMSO in a 96-well plate. The compounds were then further diluted into growth media using a BRAVO robot (Agilent, Santa Clara, CA). The diluted compounds were then added to quadruplicate wells in the 384-well cell plate and incubated at 37° C. and 5% CO2. After 5 days, relative numbers of viable cells were measured by luminescence using CellTiter-Glo® (Promega) according to the manufacturer's instructions and read on a SPARK Multimode Microplate Reader (Tecan, Mannedorf Switzerland). The IC50 calculations for the values reported in Table 2 were carried out using Prism 6.0 software (GraphPad, San Diego).

[1] = target: T1, human recombinant Aurora B (Homo sapiens, UniProt Q96GD4); assay: Aurora B Kinase Biochemical Assay (ADP-Glo); details: selectivity ratio; Aurora B 10 nM, 114 μM ATP
T1 construct: purchased ThermoFisher PR9210B
Experimental: Activity of human recombinant Aurora B (ThermoFisher, cat #PR9210B) was measured by quantification of adenosine diphosphate (ADP) using the ADP-Glo Kinase Assay Kit (Promega, cat #V9102). Test compounds were solubilized in dimethyl sulfoxide (DMSO) and dispensed into 384-well white polystyrene nonbinding plates (Greiner, cat #781094) using the Echo acoustic dispenser (Labcyte Inc.) in a 11-point 3-fold titration in duplicates. 5 μL of 20 nM Aurora B in assay buffer (50 mM HEPES, pH 7.5, 0.01% Brij-35, 0.01% BSA, 10 mM MgCl2, 1 mM EGTA, 1 mM DTT) was added to the plates. Test compounds and Aurora B were incubated for 15 minutes at room temperature (RT). Then 5 μL of a 228 μM adenosine triphosphate (ATP) (Promega, cat #V915B) and 9.3 μM Myelin Basic Protein (MBP) (SignalChem, cat #M42-51N) substrate solution in assay buffer was added and the reaction mixture was incubated for 2 hours at RT. The final concentration of Aurora b, ATP and MBP in the reactions were 10 nM, 114 μM and 4.7 μM, respectively. Reactions were stopped and the remaining ATP depleted by adding 10 μL of ADP-Glo reagent (Promega, cat #V912B) and incubating for 40 minutes at RT. The simultaneous conversion of the remaining ADP to ATP and measurement of the newly synthesized ATP was achieved by addition of 20 μL Kinase Detection reagent (Promega, cat #V9141B), incubation for 30 min at RT, and luminescence detection using the EnVision plate reader (PerkinElmer). Reactions lacking Aurora B were used as […]. Reactions containing DMSO alone were used as […]. The IC50 values reported in Table 2 were determined using four parameter non-linear regression curve fit.

T1 sequence (Q96GD4 whole entry): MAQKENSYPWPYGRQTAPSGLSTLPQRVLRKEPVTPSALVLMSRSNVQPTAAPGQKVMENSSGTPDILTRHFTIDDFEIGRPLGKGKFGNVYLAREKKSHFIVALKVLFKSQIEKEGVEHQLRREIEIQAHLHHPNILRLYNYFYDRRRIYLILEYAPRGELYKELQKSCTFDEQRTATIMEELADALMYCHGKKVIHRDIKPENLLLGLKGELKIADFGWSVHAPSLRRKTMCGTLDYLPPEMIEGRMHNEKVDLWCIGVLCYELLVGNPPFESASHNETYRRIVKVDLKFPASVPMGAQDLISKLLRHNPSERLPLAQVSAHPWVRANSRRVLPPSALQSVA

| Structure (SMILES) | [Aurora B IC50 (nM)]/[PLK4 IC50 (nM)] [1] | IC50 (CHP134) [nM] |
| --- | --- | --- |
| CCOc1ccc(-c2cnn(C)c2)cc1Nc1n[nH]c2cc([C@@H]3C[C@@]34C(=O)Nc3ccc(OC)cc34)ccc12 [Example 37, (1R,2S)-2-{3-[2-ethoxy-5-(1-methyl-1H-pyrazol-4-yl)anilino]-1H-indazol-6-yl}-5′-methoxyspiro[cyclopropane-1,3′-indol]-2′(1′H)-one] | 27839.6436 | 442 |
| CCOc1cc(-c2cnccn2)ccc1Nc1n[nH]c2cc([C@@H]3C[C@@]34C(=O)Nc3ccc(OC)cc34)ccc12 [Example 7, (1R,2S)-2-{3-[2-ethoxy-4-(pyrazin-2-yl)anilino]-1H-indazol-6-yl}-5′-methoxyspiro[cyclopropane-1,3′-indol]-2′(1′H)-one] | 702.6392 | 166 |
| CCOc1cnc(C#CC(C)(C)O)nc1Nc1n[nH]c2cc([C@@H]3C[C@@]34C(=O)Nc3ccc(OC)cc34)ccc12 [Example 45, (1R,2S)-2-(3-((5-ethoxy-2-(3-hydroxy-3-methylbut-1-yn-1-yl)pyrimidin-4-yl)amino)-1H-indazol-6-yl)-5′-methoxyspiro[cyclopropane-1,3′-indolin]-2′-one] | 8798.5611 | 890 |
| COc1ccc2c(c1)[C@]1(C[C@H]1c1ccc3c(Nc4cc(-c5ncco5)ccc4OC)n[nH]c3c1)C(=O)N2 [Example 13, (1R,2S)-5′-methoxy-2-{3-[2-methoxy-5-(1,3-oxazol-2-yl)anilino]-1H-indazol-6-yl}spiro[cyclopropane-1,3′-indol]-2′(1′H)-one] | 1120.7692 | 348 |
| COc1ccc2c(c1)[C@]1(C[C@H]1c1ccc3c(Nc4cc(-c5ccsn5)ccc4OC)n[nH]c3c1)C(=O)N2 [Example 30, (1R,2S)-5′-methoxy-2-{3-[2-methoxy-5-(1,2-thiazol-3-yl)anilino]-1H-indazol-6-yl}spiro[cyclopropane-1,3′-indol]-2′(1′H)-one] | 1970.3298 | 97.4 |
| CCOc1cc2ccccc2nc1Nc1n[nH]c2cc([C@@H]3C[C@@]34C(=O)Nc3ccc(OC)cc34)ccc12 [Example 8, (1R,2S)-2-{3-[(3-ethoxyquinolin-2-yl)amino]-1H-indazol-6-yl}-5′-methoxyspiro[cyclopropane-1,3′-indol]-2′(1′H)-one] | 1829.1347 | 490 |
| COc1ccc2c(c1)[C@]1(C[C@H]1c1ccc3c(Nc4cc(-c5ccon5)ccc4OC)n[nH]c3c1)C(=O)N2 [Example 32, (1R,2S)-5′-methoxy-2-{3-[2-methoxy-5-(1,2-oxazol-3-yl)anilino]-1H-indazol-6-yl}spiro[cyclopropane-1,3′-indol]-2′(1′H)-one] | 1218.8633 | 106 |
| COc1ccc2c(c1)[C@]1(C[C@H]1c1ccc3c(Nc4cc(-c5cnn(C)c5)cnc4OC)n[nH]c3c1)C(=O)N2 [Example 26, (1R,2S)-5′-methoxy-2-(3-{[2-methoxy-5-(1-methyl-1H-pyrazol-4-yl)pyridin-3-yl]amino}-1H-indazol-6-yl)spiro[cyclopropane-1,3′-indol]-2′(1′H)-one] | 921.6946 | 171 |
| CCOc1ncc(-c2nccs2)cc1Nc1n[nH]c2cc([C@@H]3C[C@@]34C(=O)Nc3ccc(OC)cc34)ccc12 [Example 41, (1R,2S)-2-(3-{[2-ethoxy-5-(1,3-thiazol-2-yl)pyridin-3-yl]amino}-1H-indazol-6-yl)-5′-methoxyspiro[cyclopropane-1,3′-indol]-2′(1′H)-one] | 8707.7562 | 131 |
| COc1ccc2c(c1)[C@]1(C[C@H]1c1ccc3c(Nc4ccc(S(C)(=O)=O)cc4OC)n[nH]c3c1)C(=O)N2 [Example 2, (1R,2S)-2-{3-[4-(methanesulfonyl)-2-methoxyanilino]-1H-indazol-6-yl}-5′-methoxyspiro[cyclopropane-1,3′-indol]-2′(1′H)-one] | 229.2462 | 88.9 |

Second part, led by results:

| [Aurora B IC50 (nM)]/[PLK4 IC50 (nM)] [1] | Structure (SMILES) | IC50 (CHP134) [nM] |
| --- | --- | --- |
| 465.6990 | COc1ccc2c(c1)[C@]1(C[C@H]1c1ccc3c(Nc4cc(-c5cocn5)cnc4OC)n[nH]c3c1)C(=O)N2 [Example 42, (1R,2S)-5′-methoxy-2-(3-{[2-methoxy-5-(1,3-oxazol-4-yl)pyridin-3-yl]amino}-1H-indazol-6-yl)spiro[cyclopropane-1,3′-indol]-2′(1′H)-one] | 281 |
| 256.2681 | COc1ccc2c(c1)[C@]1(C[C@H]1c1ccc3c(Nc4ccc(C(C)=O)cc4OC)n[nH]c3c1)C(=O)N2 [Example 3, (1R,2S)-2-[3-(4-acetyl-2-methoxyanilino)-1H-indazol-6-yl]-5′-methoxyspiro[cyclopropane-1,3′-indol]-2′(1′H)-one] | 308 |
| 1051.5384 | COc1ccc2c(c1)[C@]1(C[C@H]1c1ccc3c(Nc4cc(-c5cnn(C)c5)ccc4OC)n[nH]c3c1)C(=O)N2 [Example 11, (1R,2S)-5′-methoxy-2-{3-[2-methoxy-5-(1-methyl-1H-pyrazol-4-yl)anilino]-1H-indazol-6-yl}spiro[cyclopropane-1,3′-indol]-2′(1′H)-one] | 110 |
| 511.8461 | COc1ccc2c(c1)[C@]1(C[C@H]1c1ccc3c(Nc4cc(-c5cscn5)ccc4OC)n[nH]c3c1)C(=O)N2 [Example 15, (1R,2S)-5′-methoxy-2-{3-[2-methoxy-5-(1,3-thiazol-4-yl)anilino]-1H-indazol-6-yl}spiro[cyclopropane-1,3′-indol]-2′(1′H)-one] | 93.8 |
| 190 | COc1ccc2c(c1)[C@]1(C[C@H]1c1ccc3c(Nc4ccc(-c5nnn(C)n5)cc4OC)n[nH]c3c1)C(=O)N2 [Example 17, (1R,2S)-5′-methoxy-2-{3-[2-methoxy-4-(2-methyl-2H-tetrazol-5-yl)anilino]-1H-indazol-6-yl}spiro[cyclopropane-1,3′-indol]-2′(1′H)-one] | 370 |
| 1017 | CCOc1cc(S(C)(=O)=O)ccc1Nc1n[nH]c2cc([C@@H]3C[C@@]34C(=O)N(C)c3ccc(OC)cc34)ccc12 [Example 23, (1R,2S)-2-{3-[2-ethoxy-4-(methanesulfonyl)anilino]-1H-indazol-6-yl}-5′-methoxy-1′-methylspiro[cyclopropane-1,3′-indol]-2′(1′H)-one] | 111 |
| 120 | COc1ccc2c(c1)[C@]1(C[C@H]1c1ccc3c(Nc4nc(N(C)C)ncc4OC)n[nH]c3c1)C(=O)N2 [Example 20, (1R,2S)-2-(3-{[2-(dimethylamino)-5-methoxypyrimidin-4-yl]amino}-1H-indazol-6-yl)-5′-methoxyspiro[cyclopropane-1,3′-indol]-2′(1′H)-one] | 440 |
| 844.375 | CCOc1cnc(-c2nccs2)nc1Nc1n[nH]c2cc([C@@H]3C[C@@]34C(=O)Nc3ccc(OC)cc34)ccc12 [Example 44, (1R,2S)-2-(3-{[5-ethoxy-2-(1,3-thiazol-2-yl)pyrimidin-4-yl]amino}-1H-indazol-6-yl)-5′-methoxyspiro[cyclopropane-1,3′-indol]-2′(1′H)-one] | 22 |
